≈ marks a conversion by molar mass, not a printed value.
What was measured:
[1] = system: human breast adenocarcinoma MCF7 cells; experiment: Growth inhibition test (MTS) on MCF7 cells; format: cell-based; conditions: Homo sapiens, MCF7, 72 hours, read-out: MCF-7 ED50
Method in brief: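 MCF7 cells seeded in DMEM with 10% FCS, dosed next day at 0.1–10 micromol/L (diluted from 10 mmol/L DMSO stock) and cultured 72 h at 37° C, 5% CO2. MTS added for 2 h, absorbance read at 490 nm; % viability calculated relative to untreated cells as 100%.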

[2] = system: tumors derived from MV4-11 cells xenografted in nude mice; experiment: In vivo anticancer activity, MV4-11 xenograft; conditions: QD, PO; for TGI (%): 150 mg/kg, 21 days, MV4-11 xenograft in nude mice; for tumor growth inhibition (in words): after 21 days of treatment
Description: The anticancer activity of compounds 20, 359 and 416 was assessed on tumors derived from MV4-11 cells xenografted in nude mice. Mice were inoculated with 5*10^6 cells and the tumor volume was measured until it reached 100 mm^3. Throughout the whole study tumor volume has been measured (FIG. 2) and tumor growth inhibition (TGI) was calculated.

Mnk2(h) = Mnk2(h) (Homo sapiens (Human), UniProt Q9HBH9); experiment: KinaseProfiler kinase panel; format: biochemical
Chain of Mnk2(h) (Q9HBH9 whole entry): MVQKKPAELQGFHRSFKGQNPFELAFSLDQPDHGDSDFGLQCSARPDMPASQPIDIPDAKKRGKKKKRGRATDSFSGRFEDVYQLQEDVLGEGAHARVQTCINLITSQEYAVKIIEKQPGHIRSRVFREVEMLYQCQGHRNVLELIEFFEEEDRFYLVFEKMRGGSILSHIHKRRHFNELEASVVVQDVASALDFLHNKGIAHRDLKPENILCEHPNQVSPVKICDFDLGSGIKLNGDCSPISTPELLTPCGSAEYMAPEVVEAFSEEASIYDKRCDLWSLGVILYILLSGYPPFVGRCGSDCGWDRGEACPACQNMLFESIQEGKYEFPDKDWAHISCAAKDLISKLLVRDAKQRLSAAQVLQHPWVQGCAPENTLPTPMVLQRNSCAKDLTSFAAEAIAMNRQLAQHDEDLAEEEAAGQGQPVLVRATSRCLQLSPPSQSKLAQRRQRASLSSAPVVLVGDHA

NEK11(h) = NEK11(h) (Homo sapiens (Human), UniProt Q8NG66); experiment: KinaseProfiler kinase panel; format: biochemical
Chain of NEK11(h) (Q8NG66 whole entry): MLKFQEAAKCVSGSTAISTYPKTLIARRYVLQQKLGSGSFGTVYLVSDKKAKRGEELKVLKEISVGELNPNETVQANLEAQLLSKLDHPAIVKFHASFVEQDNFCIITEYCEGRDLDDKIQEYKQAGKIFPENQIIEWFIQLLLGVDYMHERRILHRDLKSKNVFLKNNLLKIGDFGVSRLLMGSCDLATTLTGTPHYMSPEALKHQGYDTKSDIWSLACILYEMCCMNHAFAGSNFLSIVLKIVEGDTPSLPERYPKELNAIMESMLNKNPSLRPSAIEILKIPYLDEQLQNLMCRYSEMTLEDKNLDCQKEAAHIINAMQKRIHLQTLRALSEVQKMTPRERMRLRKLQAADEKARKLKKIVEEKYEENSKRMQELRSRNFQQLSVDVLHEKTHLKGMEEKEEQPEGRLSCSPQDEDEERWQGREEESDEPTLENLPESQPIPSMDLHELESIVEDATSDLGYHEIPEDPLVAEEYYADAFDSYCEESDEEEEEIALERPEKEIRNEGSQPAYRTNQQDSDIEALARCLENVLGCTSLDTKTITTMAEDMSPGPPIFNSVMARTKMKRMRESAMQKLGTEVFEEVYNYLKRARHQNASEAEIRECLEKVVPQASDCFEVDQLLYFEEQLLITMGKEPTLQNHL

[3] = system: human colorectal adenocarcinoma SW480 cells; experiment: Growth inhibition test (MTS) on SW480 cells; format: cell-based; conditions: Homo sapiens, SW480, 72 hours, read-out: SW480 ED50
[4] = system: human erytroblast leukemia HEL-92.1.7 cells; experiment: Growth inhibition test (MTS) on HEL-92.1.7 cells; format: cell-based; conditions: 72 hours, read-out: HEL92 ED50
Description: Ten thousand cells of human erytroblast leukemia HEL-92.1.7 were inoculated into each well of a 96-well microplate (manufactured by Corning Corp.) using RPMI 1640 medium (culture medium) containing 10% fetal calf serum (FCS). Next day, a dimethyl sulfoxide (DMSO) solution of each test compound prepared in a concentration of 10 mmol/L was further diluted with culture medium to the desired concentrations (0.1, 0.5, 1, 2.5, 5 and 10 micromol/L), and the diluted solution was added to each well. The individual wells were further cultured in 5% carbon dioxide at 37° C. for 72 hours. After completion of the culture, 10 μl MTS (3-(4,5-Dimethyl-2-thiazolyl)-5-(carboxymethoxyphenyl)-2-(4-sulfophenyl)-2H-tetrazolium, inner salt assay (CellTiter96® AQueous One Solution Cell Proliferation Assay, Promega) was added to each well, and culturing was performed in 5% carbon dioxide at 37° C. for 2 hours. Using a microplate spectrophotometer (Synergy 2 multi-mode microplate reader (BioTek)), the absorbance of each well was measured at 490 nm. The value for cells not incorporated with a test compound was designated as 100%. By comparing these values with the absorbance difference obtained at the well in which each test compound was added, the cell viability (% viability) after treatment with the test compound was calculated.

[5] = system: human acute lymphocytic leukemia E6.1 Jurkat cells; experiment: Growth inhibition test (MTS) on E6.1 Jurkat cells; format: cell-based; conditions: 72 hours, read-out: Jurkat ED50
[6] = Solubility in phosphate buffer pH 7.4; format: physicochemical; conditions: aqueous buffer, kinetic from dmso stock, pH 7.4, 24 hours at 37° C., 1% DMSO
Description: In general, tetrahalogenated benzimidazoles are poorly soluble compounds, what renders their chances for successful therapeutic administration in commonly used routes of administration and standard conditions. In contrast to previously published tetrabromobenzimidazoles exemplified by DMAT, certain compounds provided in the application show a markedly increase in water solubility. As solubility is one of the key parameters that influences compound pharmacokinetics, permeability and therefore also activity in vitro and in vivo, improved solubility of the selected compounds is a surprising feature that can lead to improved efficacy in treating PIM kinase associated disease conditions.

Compound	IC50 [1] [µM]	remaining activity at 1 µM (Mnk2(h)) [%]	remaining activity at 1 µM (NEK11(h)) [%]	IC50 [3] [µM]	IC50 [4] [µM]	IC50 [5] [µM]	TGI (%) [2] [%]	tumor growth inhibition (in words) [2]	solubility at 24 h [6] [µM]
CCn1c(N2CCNCC2)nc2c(Br)c(Br)c(Br)c(Br)c21 [Compound 416, 4,5,6,7-tetrabromo-1-ethyl-2-(piperazin-1-yl)-1H-benzo[d]imidazole]	1.26	17	73	1.25	2.72		−102.8	most pronounced tumor growth inhibition	
Brc1c(Br)c(Br)c2[nH]c(NC3CCNCC3)nc2c1Br [Compound 435, 4,5,6,7-tetrabromo-N-(piperidin-4-yl)-1H-benzo[d]imidazol-2-amine]	3.49			1.27	5.71				
CC(C)NC1CCCCC1Nc1nc2c(Br)c(Br)c(Br)c(Br)c2[nH]1 (stereo not shown) [Compound 369, N1-(4,5,6,7-tetrabromo-1H-benzo[d]imidazol-2-yl)-N2-isopropylcyclohexane-1,2-diamine]	1.6			0.55	6.2				
Brc1c(Br)c(Br)c2c(nc(N3CCNCC3)n2Cc2ccccc2)c1Br [Compound 374, 1-benzyl-4,5,6,7-tetrabromo-2-(piperazin-1-yl)-1H-benzo[d]imidazole]	1.5			1.44	3				
Brc1c(Br)c(Br)c2[nH]c(N3CCNCC3)nc2c1Br [Compound 20, 4,5,6,7-tetrabromo-2-(piperazin-1-yl)-1H-benzo[d]imidazole]	2.47			3.45	6.04		−57.8	most pronounced tumor growth inhibition	81 (≈ 41.9 µg/mL)
CN(C)c1nc2c(Br)c(Br)c(Br)c(Br)c2[nH]1 [DMAT, 2-dimethylamino-4,5,6,7-tetrabromo-1H-benzimidazole, reference compound]	> 10			> 10		8.18			< 10
CCn1c(N2CCN(CCN3CCNCC3)CC2)nc2c(Br)c(Br)c(Br)c(Br)c21 [Compound 441, 4,5,6,7-tetrabromo-1-ethyl-2-(4-(2-(piperazin-1-yl)ethyl)piperazin-1-yl)-1H-benzo[d]imidazole]	1.3			0.7	0.6				
Brc1c(Br)c(Br)c2[nH]nnc2c1Br [TBB, 4,5,6,7-tetrabromo-1Hbenzotriazole, reference compound]				> 10		> 10			
CN(C)c1nc2c(Br)c(Br)c(Br)c(Br)c2n1CC(=O)O [Compound K66, 1-carboxymethyl-2-dimethylamino-4,5,6,7-tetrabromo-benzimidazole, reference compound]				> 10		> 10			
NCc1ccccc1CNc1nc2c(Br)c(Br)c(Br)c(Br)c2[nH]1 [Compound 349, N-(2-(aminomethyl)benzyl)-4,5,6,7-tetrabromo-1H-benzo[d]imidazol-2-amine]	2.75			1.61	6				
CC(C)n1c(N2CCNCC2)nc2c(Br)c(Br)c(Br)c(Br)c21 [Compound 359, 4,5,6,7-tetrabromo-1-isopropyl-2-(piperazin-1-yl)-1H-benzo[d]imidazole]	1.6			1.6	3.85		−84.7	most pronounced tumor growth inhibition	
CN(C)C1CCCN(c2nc3c(Br)c(Br)c(Br)c(Br)c3[nH]2)C1 (stereo not shown) [Compound 378, 1-(4,5,6,7-tetrabromo-1H-benzo[d]imidazol-2-yl)-N,N-dimethylpiperidin-3-amine]	6.19			5	9.04				
Brc1c(Br)c(Br)c2[nH]c(N[C@H]3COC[C@@H]3N3CCCCC3)nc2c1Br [Compound 338, 4,5,6,7-tetrabromo-N-((3R,4R)-tetrahydro-4-(piperidin-1-yl)furan-3-yl)-1H-benzo[d]imidazol-2-amine]	2.5			1.95	5.68				
NC1CCCC(Nc2nc3c(Br)c(Br)c(Br)c(Br)c3[nH]2)C1 (stereo not shown) [Compound 336, N1-(4,5,6,7-tetrabromo-1H-benzo[d]imidazol-2-yl)cyclohexane-1,3-diamine]	6.2			4.15					
Brc1c(Br)c(Br)c2[nH]cnc2c1Br [TBI, 4,5,6,7-tetrabromo-1H-benzimidazole, reference compound]				7.21		> 10			

Further compounds by falling IC50 [3], results first:

IC50 [1] [µM]	remaining activity at 1 µM (Mnk2(h)) [%]	remaining activity at 1 µM (NEK11(h)) [%]	IC50 [3] [µM]	IC50 [4] [µM]	IC50 [5] [µM]	Compound	TGI (%) [2] [%]	tumor growth inhibition (in words) [2]	solubility at 24 h [6] [µM]
			9.13		> 10	Brc1c(Br)c(Br)c2c(Br)n[nH]c2c1Br [Compound K64, 3,4,5,6,7-pentabromo-1H-indazole, reference compound]			
2.15			2.84	5.1		Brc1c(Br)c(Br)c2[nH]c(NC3CCCNCC3)nc2c1Br (stereo not shown) [Compound 366, N-(azepan-4-yl)-4,5,6,7-tetrabromo-1H-benzo[d]imidazol-2-amine]			
2.54			2.56	3.28		CCCn1c(N2CCNCC2)nc2c(Br)c(Br)c(Br)c(Br)c21 [Compound 417, 4,5,6,7-tetrabromo-2-(piperazin-1-yl)-1-propyl-1H-benzo[d]imidazole]			
4.7			2.47	5.7	3.46	NCCCNc1nc2c(Br)c(Br)c(Br)c(Br)c2[nH]1 [Compound 11, N-(3-aminopropyl)-4,5,6,7-tetrabromo-1H-benzo[d]imidazol-2-amine]			
3.03			2.42	7.65		CN1CCCC(Nc2nc3c(Br)c(Br)c(Br)c(Br)c3[nH]2)CC1 (stereo not shown) [Compound 358, 4,5,6,7-tetrabromo-N-(1-methylazepan-4-yl)-1H-benzo[d]imidazol-2-amine]			
5.62			2.03	9.07	5.81	NC1CCC(Nc2nc3c(Br)c(Br)c(Br)c(Br)c3[nH]2)CC1 (stereo not shown) [Compound 87, N1-(4,5,6,7-tetrabromo-1H-benzo[d]imidazol-2-yl)cyclohexane-1,4-diamine]			
2.47			1.77	6.12		Brc1c(Br)c(Br)c2[nH]c(N3CCC(C4CCNCC4)CC3)nc2c1Br [Compound 386, 4,5,6,7-tetrabromo-2-(4-(piperidin-4-yl)piperidin-1-yl)-1H-benzo[d]imidazole]			
1.78			1.61	4.5		Brc1c(Br)c(Br)c2[nH]c(N[C@H]3COC[C@@H]3N3CCCC3)nc2c1Br [Compound 337, 4,5,6,7-tetrabromo-N-((3R,4R)-tetrahydro-4-(pyrrolidin-1-yl)furan-3-yl)-1H-benzo[d]imidazol-2-amine]			
1.6			1.27	5.57		C[C@@H]1CN(c2nc3c(Br)c(Br)c(Br)c(Br)c3[nH]2)[C@@H](C)CN1 [Compound 364, 4,5,6,7-tetrabromo-2-((2S,5R)-2,5-dimethylpiperazin-1-yl)-1H-benzo[d]imidazole]			
2			1	0.8		CCn1c(N2CCN(CCCN3CCOCC3)CC2)nc2c(Br)c(Br)c(Br)c(Br)c21 [Compound 450]			
1.3			0.58	3.29		CCCCCNC1CCCCC1Nc1nc2c(Br)c(Br)c(Br)c(Br)c2[nH]1 (stereo not shown) [Compound 413, N1-(4,5,6,7-tetrabromo-1H-benzo[d]imidazol-2-yl)-N2-pentylcyclohexane-1,2-diamine]			
